Experimental data: patent US20060069132A1, “Azolecarboxamide herbicides” (priority 2004, published 2006)

Experiments:
[1] = system: bermudagrass; assay: Test C pre-/postemergence herbicide test; format: in vivo, Cynodon dactylon; settings: for Plant response rating, Bermudagrass: preemergence; for Bermudagrass plant response rating: Preemergence, 500 g ai/ha
Procedure, shortened: (§1)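 Visual injury scores run from 0 (no effect) to 100 (complete control), assessed relative to untreated controls 12 to 14 days after treatment in the greenhouse. Chemicals were formulated in a non-phytotoxic solvent mixture with surfactant and applied to soil after planting or to emerged plants at the 1- to 4-leaf stage.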

[2] = system: cocklebur; assay: Test C pre-/postemergence herbicide test; format: in vivo, Xanthium strumarium; settings: for Plant response rating, Cocklebur: preemergence; for Cocklebur plant response rating: Preemergence, 500 g ai/ha, scale 0 to 100, 0 no effect, 100 complete control
Procedure, shortened: as §1

[3] = system: corn; assay: Test C pre-/postemergence herbicide test; format: in vivo, Zea mays; settings: preemergence
Procedure, shortened: as §1

[4] = system: woolly cupgrass; assay: Test C pre-/postemergence herbicide test; format: in vivo, Eriochloa villosa; settings: preemergence
Procedure, shortened: as §1

[5] = system: giant foxtail; assay: Test C pre-/postemergence herbicide test; format: in vivo, Setaria faberi; settings: preemergence
Procedure, shortened: as §1

[6] = system: goosegrass; assay: Test C pre-/postemergence herbicide test; format: in vivo, Eleusine indica; settings: preemergence
Procedure, shortened: as §1

[7] = system: kochia; assay: Test C pre-/postemergence herbicide test; format: in vivo, Kochia scoparia; settings: preemergence
Procedure, shortened: as §1

[8] = system: morningglory; assay: Test C pre-/postemergence herbicide test; format: in vivo, Ipomoea coccinea; set-up: key to Plant response rating, Morningglory: 0 = no effect, 100 = complete control; settings: preemergence
Procedure, shortened: as §1

[9] = system: yellow nutsedge; assay: Test C pre-/postemergence herbicide test; format: in vivo, Cyperus esculentus; settings: preemergence
Procedure, shortened: as §1

[10] = system: soybean; assay: Test C pre-/postemergence herbicide test; format: in vivo, Glycine max; settings: preemergence
Procedure, shortened: as §1

[11] = system: velvetleaf; assay: Test C pre-/postemergence herbicide test; format: in vivo, Abutilon theophrasti; settings: preemergence
Procedure, shortened: as §1

[12] = system: barnyardgrass; assay: Test C flooded paddy test; format: in vivo, Echinochloa crus-galli; settings: for Plant response rating, Barnyardgrass: 500 g ai/ha, visual rating after 12 to 14 days
Procedure, shortened: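 Postemergence sprays were applied to plants 2 to 18 cm tall (1- to 4-leaf stage); in the flooded paddy test, barnyardgrass was grown to the 2-leaf stage. After 12 to 14 days in a greenhouse, injury was visually rated against untreated controls on a 0–100 scale (100 = complete control).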

[13] = 62 g ai/ha, scale 0 to 100, 0 no effect, 100 complete control
[14] = 125 g ai/ha, scale 0 (no effect) to 100 (complete control), visual, 12 to 14 days
[15] = scale 0 to 100, 0 no effect, 100 complete control
[16] = 500 g ai/ha, scale 0 to 100 (0 no effect, 100 complete control), visual, 12 to 14 days
[17] = 62 g ai/ha, scale 0 to 100 (0 no effect, 100 complete control)
[18] = 125 g ai/ha, scale 0 to 100 (0 no effect, 100 complete control)
[19] = 250 g ai/ha, scale of 0 to 100, 0 is no effect, 100 is complete control
[20] = scale 0 to 100 (0 no effect, 100 complete control)

CCc1nn(C(C)(C)C)cc1C(=O)Nc1cc(C(=O)N(C)C)ccn1 [Compound 293]
95: Plant response rating, Bermudagrass [1, 14] | Plant response rating, Corn [3, 16] | Plant response rating, Cupgrass, Woolly ([4]; 250 g ai/ha, scale 0-100) | Plant response rating, Goosegrass ([6]; 250 g ai/ha, scale 0-100)
90: Plant response rating, Bermudagrass [1, 13] | Plant response rating, Soybean ([10]; 250 g ai/ha, scale 0-100)
80: Plant response rating, Corn ([3]; 250 g ai/ha, scale 0-100) | Plant response rating, Velvetleaf ([11]; 62 g ai/ha, scale 0 to 100) | Plant response rating, Barnyardgrass [12, 20]
100: Plant response rating, Bermudagrass ([1]; 250 g ai/ha, scale 0-100) | Bermudagrass plant response rating [1, 15] | Plant response rating, Cupgrass, Woolly [4, 16] | Plant response rating, Foxtail, Giant ([5]; 250 g ai/ha, scale 0-100) | Plant response rating, Foxtail, Giant [5, 16] | Plant response rating, Goosegrass [6, 16] | Plant response rating, Kochia ([7]; 62 g ai/ha, scale 0 to 100) | Plant response rating, Kochia [7, 14] | Plant response rating, Kochia ([7]; 250 g ai/ha, scale 0-100) | Plant response rating, Kochia [7, 16] | Plant response rating, Morningglory ([8]; 250 g ai/ha, scale 0-100) | Plant response rating, Soybean [10, 16] | Plant response rating, Velvetleaf ([11]; 250 g ai/ha, scale 0-100) | Plant response rating, Velvetleaf [11, 16]
65: Plant response rating, Goosegrass ([6]; 62 g ai/ha, scale 0 to 100)
85: Plant response rating, Goosegrass [6, 14]
45: Plant response rating, Cupgrass, Woolly ([4]; 62 g ai/ha, scale 0 to 100)
70: Plant response rating, Cupgrass, Woolly [4, 14] | Plant response rating, Foxtail, Giant [5, 14] | Barnyardgrass plant response rating [12, 19]
60: Cocklebur plant response rating [2]
20: Plant response rating, Cocklebur ([2]; 250 g ai/ha, scale 0-100) | Plant response rating, Nutsedge, Yellow [9, 16] | Barnyardgrass plant response rating [12, 18]
0: Plant response rating, Cocklebur ([2]; 62 g ai/ha, scale 0 to 100) | Plant response rating, Nutsedge, Yellow ([9]; 62 g ai/ha, scale 0 to 100) | Plant response rating, Nutsedge, Yellow [9, 14] | Plant response rating, Nutsedge, Yellow ([9]; 250 g ai/ha, scale 0-100) | Plant response rating, Soybean ([10]; 62 g ai/ha, scale 0 to 100) | Barnyardgrass plant response rating [12, 17]
10: Plant response rating, Corn [3, 14] | Plant response rating, Foxtail, Giant ([5]; 62 g ai/ha, scale 0 to 100)

CCn1nc(C(C)(C)C)cc1C(=O)Nc1cc(C(=S)N(C)C)ccc1F [Compound 294]
30: Plant response rating, Cocklebur ([2]; 62 g ai/ha, scale 0 to 100) | Plant response rating, Morningglory ([8]; 62 g ai/ha, scale 0 to 100) | Plant response rating, Morningglory [8, 14]
70: Plant response rating, Bermudagrass [1, 13] | Plant response rating, Soybean ([10]; 62 g ai/ha, scale 0 to 100)
95: Barnyardgrass plant response rating [12, 19]
85: Cocklebur plant response rating [2] | Plant response rating, Cupgrass, Woolly [4, 16] | Plant response rating, Goosegrass ([6]; 250 g ai/ha, scale 0-100)
90: Plant response rating, Bermudagrass ([1]; 250 g ai/ha, scale 0-100) | Bermudagrass plant response rating [1, 15] | Plant response rating, Foxtail, Giant ([5]; 250 g ai/ha, scale 0-100) | Plant response rating, Foxtail, Giant [5, 16] | Plant response rating, Nutsedge, Yellow [9, 16] | Barnyardgrass plant response rating [12, 18]
100: Plant response rating, Goosegrass [6, 16] | Plant response rating, Kochia ([7]; 62 g ai/ha, scale 0 to 100) | Plant response rating, Kochia [7, 14] | Plant response rating, Kochia ([7]; 250 g ai/ha, scale 0-100) | Plant response rating, Kochia [7, 16] | Plant response rating, Soybean ([10]; 250 g ai/ha, scale 0-100) | Plant response rating, Soybean [10, 16] | Plant response rating, Velvetleaf ([11]; 62 g ai/ha, scale 0 to 100) | Plant response rating, Velvetleaf ([11]; 250 g ai/ha, scale 0-100) | Plant response rating, Velvetleaf [11, 16] | Plant response rating, Barnyardgrass [12, 20]
60: Plant response rating, Corn [3, 14] | Plant response rating, Corn ([3]; 250 g ai/ha, scale 0-100)
75: Plant response rating, Cupgrass, Woolly [4, 14] | Barnyardgrass plant response rating [12, 17]
80: Plant response rating, Bermudagrass [1, 14] | Plant response rating, Cocklebur ([2]; 250 g ai/ha, scale 0-100) | Plant response rating, Corn [3, 16] | Plant response rating, Cupgrass, Woolly ([4]; 250 g ai/ha, scale 0-100) | Plant response rating, Foxtail, Giant [5, 14] | Plant response rating, Goosegrass ([6]; 62 g ai/ha, scale 0 to 100) | Plant response rating, Goosegrass [6, 14] | Plant response rating, Nutsedge, Yellow ([9]; 250 g ai/ha, scale 0-100)
55: Plant response rating, Corn ([3]; 62 g ai/ha, scale 0 to 100) | Plant response rating, Cupgrass, Woolly ([4]; 62 g ai/ha, scale 0 to 100) | Plant response rating, Nutsedge, Yellow [9, 14]
40: Plant response rating, Cocklebur [2, 14]
50: Plant response rating, Morningglory ([8]; 250 g ai/ha, scale 0-100) | Plant response rating, Morningglory [8, 16] | Plant response rating, Nutsedge, Yellow ([9]; 62 g ai/ha, scale 0 to 100)
